The values below come from patent publication US20150232452A1, “NOVEL RAF KINASE INHIBITORS” (Ruga Corporation, priority 2012, published 2015).

Test [1] addresses Braf V600E (recombinant V600E mutated B-RAF) (Homo sapiens, UniProt P15056, V600E). Nature of the test: In vitro assay for determining inhibition of mutant B-RAF kinase. As to conditions: 10 nM recombinant V600E mutated B-RAF, 1 μM MEK (K97R) as substrate. Format: biochemical. Here is the method:
In Vitro Assay for Determining Inhibition of B-RAF Kinase or Mutant B-RAF Kinase
Solutions of varying concentrations of test compounds or vehicle are added to 10 nM recombinant V600E mutated B-RAF proteins incubated in the presence of different concentrations of ATP and 1 μM MEK (K97R) as substrate, as previously described (Wilhelm, S. M., et al., Cancer Res., 64: 7099-7109, 2004; Mason, C. S., et al., EMBO J. 18: 2137-2148, 1999; Marais, R., et al., J. Biol. Chem., 272: 4378-4383, 1997). At least triplicate determinations for each individual test compound concentration are made and data is plotted as mean±standard deviation relative to the control vehicle.

Test [2] deals with A375 cells (V600E activated B-RAF). Nature of the test: In vitro assay for tumor cell growth (MTT, 72 hours incubation). The format is cell-based. The conditions noted are these: Homo sapiens, A-375, 72 h, growth inhibition of A375 cells, unit inferred. Here is the method:
In Vitro Assays for Tumor Cell Growth
Cell lines are obtained from the American Type Tissue Culture Collection (Maryland, USA) and cultured in media containing heat-inactivated 10% fetal bovine serum. Cell cultures are also maintained in 10 U/mL penicillin, 100 μg/mL streptomycin and 2 mM glutamine. At least triplicate determinations for each individual test compound concentration are made and data is plotted as mean±standard deviation relative to the control vehicle.

Molecules are shown by their SMILES. Some results are limits rather than exact numbers.

Chain of Braf V600E (recombinant V600E mutated B-RAF) (P15056 whole entry V600E): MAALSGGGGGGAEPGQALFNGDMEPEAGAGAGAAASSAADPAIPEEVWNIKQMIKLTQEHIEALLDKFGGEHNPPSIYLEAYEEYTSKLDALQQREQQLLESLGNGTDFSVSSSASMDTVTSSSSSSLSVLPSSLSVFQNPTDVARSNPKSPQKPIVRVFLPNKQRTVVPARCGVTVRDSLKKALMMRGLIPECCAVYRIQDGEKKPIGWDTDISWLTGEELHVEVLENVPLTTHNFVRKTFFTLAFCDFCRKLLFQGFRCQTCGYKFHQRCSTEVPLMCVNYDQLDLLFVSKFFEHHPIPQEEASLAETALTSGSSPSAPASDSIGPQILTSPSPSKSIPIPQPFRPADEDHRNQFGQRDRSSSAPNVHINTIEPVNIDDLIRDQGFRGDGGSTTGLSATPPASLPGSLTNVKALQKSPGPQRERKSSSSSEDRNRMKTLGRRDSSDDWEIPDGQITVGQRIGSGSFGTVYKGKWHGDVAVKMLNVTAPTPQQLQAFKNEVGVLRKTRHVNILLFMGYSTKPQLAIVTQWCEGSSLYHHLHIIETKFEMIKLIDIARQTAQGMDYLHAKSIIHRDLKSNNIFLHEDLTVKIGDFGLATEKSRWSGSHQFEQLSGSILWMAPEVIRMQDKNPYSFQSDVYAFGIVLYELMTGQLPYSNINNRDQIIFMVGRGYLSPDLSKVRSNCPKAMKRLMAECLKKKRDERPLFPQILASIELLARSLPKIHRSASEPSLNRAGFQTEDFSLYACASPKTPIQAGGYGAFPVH

The term IC50 denotes the midpoint of a concentration-inhibition curve. Regarding `CC(C)(C)c1nc(-c2ccnc(N)n2)c(-c2cccc(NC(=O)Nc3ccc(C(F)(F)F)cc3)c2)s1` [Example 1, 1-(3-(4-(2-aminopyrimidin-4-yl)-2-(tert-butyl)thiazol-5-yl)phenyl)-3-(4-(trifluoromethyl)phenyl)urea], the concentration for half-maximal inhibition (IC50) was 0.225 µM in test [1] and more than 10 µM in test [2].

Take `CC(C)(C)c1nc(-c2ccnc(N)n2)c(-c2cccc(NC(=O)Nc3ccc(C(F)(F)F)cc3)c2F)s1` [Example 2, 1-(3-(4-(2-aminopyrimidin-4-yl)-2-(tert-butyl)thiazol-5-yl)-2-fluorophenyl)-3-(4-(trifluoromethyl)phenyl)urea]: the IC50 in test [1] was 3.98 µM; in test [2], more than 10 µM.

As to `CCn1cc(-c2cccc(NC(=O)Nc3ccc(C(F)(F)F)cc3)c2)c(-c2ccncc2)n1` [Example 3, 1-(3-(1-ethyl-3-(pyridin-4-yl)-1H-pyrazol-4-yl)phenyl)-3-(4-(trifluoromethyl)phenyl)urea], the IC50 in test [1] stood at 0.00072 µM; in test [2], 0.202 µM.

Take `CCn1cc(-c2cccc(NC(=O)Nc3ccc(C(C)(C)C)cc3)c2)c(-c2ccncc2)n1` [Example 4, 1-(4-(tert-butyl)phenyl)-3-(3-(1-ethyl-3-(pyridin-4-yl)-1H-pyrazol-4-yl)phenyl)urea]: the IC50 turned out to be 0.00653 µM in test [1] and 0.506 µM in test [2].

Consider `CCn1cc(-c2cccc(NC(=O)Nc3ccc(C)cc3)c2)c(-c2ccncc2)n1` [Example 5, 1-(3-(1-ethyl-3-(pyridin-4-yl)-1H-pyrazol-4-yl)phenyl)-3-(p-tolyl)urea], for which the values for the IC50 in test [1] and in test [2] were 0.00161 µM and 0.815 µM, respectively.

`CCn1cc(-c2cccc(NC(=O)Nc3ccc(C(C)C)cc3)c2)c(-c2ccncc2)n1` [Example 6, 1-(3-(1-ethyl-3-(pyridin-4-yl)-1H-pyrazol-4-yl)phenyl)-3-(4-isopropylphenyl)urea]: the half-maximal inhibitory concentration (IC50) in test [1] turned out to be 0.00118 µM; in test [2], 0.449 µM.

`CCn1cc(-c2cccc(NC(=O)Nc3cccc(C(F)(F)F)c3)c2)c(-c2ccncc2)n1` [Example 7, 1-(3-(1-ethyl-3-(pyridin-4-yl)-1H-pyrazol-4-yl)phenyl)-3-(3-(trifluoromethyl)phenyl)urea]: the results for the half-inhibitory concentration (IC50) in test [1] and in test [2] were 0.00444 µM and 1.75 µM, respectively.

Turning to `CCn1cc(-c2cccc(NC(=O)Nc3ccc(F)c(C(F)(F)F)c3)c2)c(-c2ccncc2)n1` [Example 8, 1-(3-(1-ethyl-3-(pyridin-4-yl)-1H-pyrazol-4-yl)phenyl)-3-(4-fluoro-3-(trifluoromethyl)phenyl)urea], the half-maximal inhibitory concentration (IC50) in test [1] is 0.00431 µM; in test [2], 2.54 µM.

In the case of `CCn1cc(-c2cccc(NC(=O)Nc3ccc(Cl)c(C(F)(F)F)c3)c2)c(-c2ccncc2)n1` [Example 9, 1-(4-chloro-3-(trifluoromethyl)phenyl)-3-(3-(1-ethyl-3-(pyridin-4-yl)-1H-pyrazol-4-yl)phenyl)urea], the IC50 in test [1] is 0.00301 µM; in test [2], 1.78 µM.

For the molecule `CCn1cc(-c2cccc(NC(=O)Nc3ccc(I)cc3)c2)c(-c2ccncc2)n1` [Example 10, 1-(3-(1-ethyl-3-(pyridin-4-yl)-1H-pyrazol-4-yl)phenyl)-3-(4-iodophenyl)urea], the values for the IC50 in test [1] and in test [2] were 0.0022 µM and 0.049 µM, respectively.

As for `CCn1cc(-c2cccc(NC(=O)Nc3cccc(C)c3)c2)c(-c2ccncc2)n1` [Example 11, 1-(3-(1-ethyl-3-(pyridin-4-yl)-1H-pyrazol-4-yl)phenyl)-3-(m-tolyl)urea], the IC50 came out at 0.00498 µM in test [1] and 3.47 µM in test [2].

With `CCn1cc(-c2cccc(NC(=O)Nc3ccc(Cl)cc3Cl)c2)c(-c2ccncc2)n1` [Example 12, 1-(2,4-dichlorophenyl)-3-(3-(1-ethyl-3-(pyridin-4-yl)-1H-pyrazol-4-yl)phenyl)urea], the values for the half-maximal inhibitory concentration (IC50) in test [1] and in test [2] were 0.00639 µM and 1.37 µM, respectively.

As for `CCn1cc(-c2cccc(NC(=O)Nc3ccccc3Cl)c2)c(-c2ccncc2)n1` [Example 13, 1-(2-chlorophenyl)-3-(3-(1-ethyl-3-(pyridin-4-yl)-1H-pyrazol-4-yl)phenyl)urea], in test [1], the IC50 turned out to be 0.0587 µM.

For the molecule `CCn1cc(-c2cccc(NC(=O)Nc3cccc(F)c3)c2)c(-c2ccncc2)n1` [Example 14, 1-(3-(1-ethyl-3-(pyridin-4-yl)-1H-pyrazol-4-yl)phenyl)-3-(3-fluorophenyl)urea], the IC50 in test [1] came to 0.0393 µM.

For `CCn1cc(-c2cccc(NC(=O)Nc3ccccc3F)c2)c(-c2ccncc2)n1` [Example 15, 1-(3-(1-ethyl-3-(pyridin-4-yl)-1H-pyrazol-4-yl)phenyl)-3-(2-fluorophenyl)urea], the IC50 in test [1] stood at 0.0538 µM.

In the case of `CCn1cc(-c2cccc(NC(=O)Nc3ccc(Cl)cc3)c2)c(-c2ccncc2)n1` [Example 16, 1-(4-chlorophenyl)-3-(3-(1-ethyl-3-(pyridin-4-yl)-1H-pyrazol-4-yl)phenyl)urea], the 50% inhibitory concentration (IC50) in test [1] was determined as 0.00231 µM; in test [2], 0.272 µM.

Molecule `CCn1cc(-c2cccc(NC(=O)Nc3ccc(I)cc3F)c2)c(-c2ccncc2)n1` [Example 17, 1-(3-(1-ethyl-3-(pyridin-4-yl)-1H-pyrazol-4-yl)phenyl)-3-(2-fluoro-4-iodophenyl)urea] came in with an IC50 in test [2] of 0.166 µM.

`CCn1cc(-c2cccc(NC(=O)Nc3ccc(Br)cc3F)c2)c(-c2ccncc2)n1` [Example 18, 1-(4-bromo-2-fluorophenyl)-3-(3-(1-ethyl-3-(pyridin-4-yl)-1H-pyrazol-4-yl)phenyl) urea] came in with a half-maximal inhibitory concentration (IC50) in test [2] of 0.541 µM.

Turning to `CCn1cc(-c2cccc(NC(=O)Nc3ccc(I)c(F)c3)c2)c(-c2ccncc2)n1` [Example 19, 1-(3-(1-ethyl-3-(pyridin-4-yl)-1H-pyrazol-4-yl)phenyl)-3-(3-fluoro-4-iodophenyl)urea], the IC50 in test [2] came to 0.042 µM.

As for `CCn1cc(-c2cccc(NC(=O)Nc3cccc(I)c3)c2)c(-c2ccncc2)n1` [Example 20, 1-(3-(1-ethyl-3-(pyridin-4-yl)-1H-pyrazol-4-yl)phenyl)-3-(3-iodophenyl)urea], 2.08 µM corresponded to half-maximal inhibition in test [2] (IC50).

In test [2], `CCn1cc(-c2cccc(NC(=O)Nc3ccc(Br)cc3)c2)c(-c2ccncc2)n1` [Example 21, 1-(4-bromophenyl)-3-(3-(1-ethyl-3-(pyridin-4-yl)-1H-pyrazol-4-yl)phenyl)urea] registered a 50% inhibitory concentration (IC50) of 0.085 µM.

`CCn1cc(-c2cccc(NC(=O)Nc3ccc(Br)c(F)c3)c2)c(-c2ccncc2)n1` [Example 22, 1-(4-bromo-3-fluorophenyl)-3-(3-(1-ethyl-3-(pyridin-4-yl)-1H-pyrazol-4-yl)phenyl)urea]: the IC50 in test [2] was 0.083 µM.

On to `CC(C)n1cc(-c2cccc(NC(=O)Nc3ccc(C(F)(F)F)cc3)c2)c(-c2ccncc2)n1` [Example 23, 1-(3-(1-isopropyl-3-(pyridin-4-yl)-1H-pyrazol-4-yl)phenyl)-3-(4-(trifluoromethyl)phenyl)urea], for which the IC50 amounted to 0.006 µM in test [1] and 1.73 µM in test [2].

In test [2], `CC(C)n1cc(-c2cccc(NC(=O)Nc3ccc(I)c(F)c3)c2)c(-c2ccncc2)n1` [Example 24, 1-(3-fluoro-4-iodophenyl)-3-(3-(1-isopropyl-3-(pyridin-4-yl)-1H-pyrazol-4-yl)phenyl)urea] showed an IC50 of 0.233 µM.

With `CC(C)(C)n1cc(-c2cccc(NC(=O)Nc3ccc(C(F)(F)F)cc3)c2)c(-c2ccncc2)n1` [Example 25, 1-(3-(1-(tert-butyl)-3-(pyridin-4-yl)-1H-pyrazol-4-yl)phenyl)-3-(4-(trifluoromethyl)phenyl)urea], in test [1], the IC50 was 1.6 µM.

For the molecule `CCn1cc(-c2cccc(NC(=O)Nc3ccc(Br)c(F)c3)c2)c(-c2ccnc(N)n2)n1` [Example 27, 1-(3-(3-(2-aminopyrimidin-4-yl)-1-ethyl-1H-pyrazol-4-yl)phenyl)-3-(4-bromo-3-fluorophenyl)urea], in test [2], the half-inhibitory concentration (IC50) turned out to be 0.571 µM.

For the molecule `CCn1cc(-c2cccc(NC(=O)Nc3ccc(C(F)(F)F)cc3)c2)c(-c2ccnc(N)n2)n1` [Example 28, 1-(3-(3-(2-aminopyrimidin-4-yl)-1-ethyl-1H-pyrazol-4-yl)phenyl)-3-(4-(trifluoromethyl)phenyl)urea], the IC50 in test [1] is 0.0035 µM; in test [2], 0.362 µM.
